Data reported in ChEMBL document CHEMBL1133886, “Synthesis of N-alkyl substituted indolocarbazoles as potent inhibitors of human cytomegalovirus replication” (Bioorg Med Chem Lett, 2001).

Key:
Human betaherpesvirus 5 = test: Inhibitory activity against human cytomegalo virus (HCMV) using standard plaque reduction assay; type: functional, organism-based
Vero = test: Compound was evaluated for its cytotoxicity against Vero cell line; type: functional, Chlorocebus sabaeus
[1] = molecular target: Protein kinase C (PKC) (Homo sapiens) (UniProt O94806+P41743+P17252+P05129+Q05655+P05771+Q05513+Q02156+P24723+Q15139+Q04759); test: Percent inhibition of protein kinase C at 100 uM; type: protein assay
Protein kinase C (PKC) = test: Inhibition of protein kinase C; type: protein assay
MRC5 [2] = test: Inhibitory concentration against Davis HCMV strain of MRC5 cells; type: functional, cell-based; settings: Homo sapiens
MRC5 [3] = test: Inhibitory concentration against AD169 HCMV strain of MRC5 cells; type: functional, cell-based; settings: Homo sapiens
MRC5 [4] = test: Inhibitory concentration against C8805 HCMV strain of MRC5 cells; type: functional, cell-based; settings: Homo sapiens
MRC5 [5] = test: Inhibitory concentration against Xba F HCMV strain of MRC5 cells; type: functional, cell-based; settings: Homo sapiens
MRC5 [6] = test: Inhibitory concentration against 2599R HCMV strain of MRC5 cells; type: functional, cell-based; settings: Homo sapiens
MRC5 [7] = test: Inhibitory concentration against Towne HCMV strain of MRC5 cells; type: functional, cell-based; settings: Homo sapiens
MRC5 [8] = test: Inhibitory concentration against AD169 strain of HCMV in MRC5 cells; type: functional, cell-based; settings: Homo sapiens
MRC5 [9] = test: Inhibitory concentration against 2599R strain of HCMV in MRC5 cells; type: functional, cell-based; settings: Homo sapiens
MRC5 [10] = test: Inhibitory concentration against Davis strain of HCMV in MRC5 cells; type: functional, cell-based; settings: Homo sapiens
MRC5 [11] = test: Inhibitory concentration against Towne strain of HCMV in MRC5 cells; type: functional, cell-based; settings: Homo sapiens
MRC5 [12] = test: Inhibitory concentration against Xba F strain of HCMV in MRC5 cells; type: functional, cell-based; settings: Homo sapiens

Compound | IC50 (Human betaherpesvirus 5) | CCID50 (Vero) | inhibition [1] | IC50 (Protein kinase C (PKC)) | also measured
Cn1c2ccccc2c2c3c(c4c5ccccc5[nH]c4c21)C(=O)NC3=O | 0.06 µM | >31 µM | 47% | – | –
O=C1NC(=O)c2c1c1c3ccccc3[nH]c1c1c2c2ccccc2n1CC(F)(F)F | 0.07 µM | <8 µM | – | 25 µM | –
O=C1NC(=O)c2c1c1c3ccccc3[nH]c1c1c2c2ccccc2n1Cc1ccccc1 | – | <31 µM | 23% | – | –
O=C1NC(=O)c2c1c1c3ccccc3[nH]c1c1[nH]c3ccccc3c21 [STAUROSPORINE AGLYCON] | 0.2 µM | >125 µM | < 50% | – | –
CC(C)Cn1c2ccccc2c2c3c(c4c5ccccc5[nH]c4c21)C(=O)NC3=O | 0.03 µM | <8 µM | 71% | – | –
CCn1c2ccccc2c2c3c(c4c5ccccc5[nH]c4c21)C(=O)NC3=O | 0.019 µM | >125 µM | – | 10 µM | IC50 (MRC5 [2]): 0.03 µM; IC50 (MRC5 [3]): 0.019 µM; IC50 (MRC5 [4]): 0.06 µM; IC50 (MRC5 [5]): 0.02 µM; IC50 (MRC5 [6]): 0.13 µM; IC50 (MRC5 [7]): 0.09 µM
CCCn1c2ccccc2c2c3c(c4c5ccccc5[nH]c4c21)C(=O)NC3=O | 0.15 µM | <8 µM | – | 50 µM | –
Nc1nc2c(ncn2COC(CO)CO)c(=O)[nH]1 [GANCICLOVIR] | 3 µM | >500 µM | – | – | IC50 (MRC5 [8]): 3 µM; IC50 (MRC5 [9]): 1.6 µM; IC50 (MRC5 [10]): 1.4 µM; IC50 (MRC5 [11]): 1.5 µM; IC50 (MRC5 [12]): > 10 µM
CC(C)n1c2ccccc2c2c3c(c4c5ccccc5[nH]c4c21)C(=O)NC3=O | 0.1 µM | 28 µM | – | 50 µM | –
